Work on Nc1nc2c(ncn2[C@@H]2O[C@H](CO)[C@@H](O)[C@H]2O)c(=O)[nH]1 yielded a logP of -1.9.
For CNC(=O)Oc1ccccc1OC(C)C, the logP was 1.52.
For NCCc1cccnc1, the logP was -0.11.
Nc1ccn(C2C=CC(CO)O2)c(=O)n1 (centres undefined) gave a logP of -1.55.
In the case of O=C(O)COc1ccccc1Cl, the logP is reported as 1.86.
Work on Clc1cccc2cccnc12 yielded a logP of 2.44.
O=C(O)COc1ccc(Cl)cc1 gave a logP of 2.25.
For C1CNCCN1, the logP was -1.5.
CNC(=O)Oc1cccc([N+](=O)[O-])c1 gave a logP of 1.39.
For OCc1ccccc1O, the logP was 0.73.
For COc1ccc2c(c1)c(CC(=O)O)c(C)n2C(=O)c1ccc(Cl)cc1, the logP was 4.27.
For CCOC1(c2ccccc2)OCCN(C)C1C (centres undefined), the logP was 2.27.
Clc1nc2c(Cl)c(Cl)c(Cl)c(Cl)c2[nH]1 gave a logP of 4.53.
With O=[N+]([O-])c1cccc2cccnc12 the logP was 1.4.
Work on Cc1cc(C)c(C)cc1C yielded a logP of 4.
Work on CN1CC[C@]23c4c5ccc(O)c4O[C@H]2C(=O)CC[C@@]3(O)[C@H]1C5 yielded a logP of 0.83.
OCC(F)(F)F showed a logP of 0.41.
Work on O=C(O)CSc1ccccc1 yielded a logP of 1.91.
With N=c1[nH]c(=O)c2ncn([C@@H]3C=C[C@@H](CO)O3)c2[nH]1 the logP was -1.21.
With NC(=O)c1ccc(Cl)cc1 the logP was 1.55.
For O=C(O)c1cccc2ccccc12, the logP was 3.1.
Molecule Nc1ccc(S(=O)(=O)Nc2ncccn2)cc1 has a logP of -0.09.
Molecule CCCN(CC)CCC has a logP of 2.68.
Work on Cc1cccc2c1c([N+](=O)[O-])cc[n+]2[O-] yielded a logP of 1.36.
CCc1ccccn1 showed a logP of 1.69.
For NS(=O)(=O)c1ccc(Cl)c(Cl)c1, the logP was 1.44.
With CCc1ccc(S(N)(=O)=O)cc1 the logP was 1.31.
With C[C@]12CCC(=O)C=C1CC[C@@H]1[C@@H]2[C@@H](O)C[C@]2(C=O)[C@@H](C(=O)CO)CC[C@@H]12 the logP was 1.08.
CC#N gave a logP of -0.34.
With COC1C(Cl)C(Cl)C(Cl)C(Cl)C1OC (centres undefined) the logP was 2.82.
In the case of COc1cccc(/C=C/[N+](=O)[O-])c1, the logP is reported as 2.37.
In the case of CCc1ccccc1O, the logP is reported as 2.47.
Work on ClC(Cl)(Cl)Cl yielded a logP of 2.83.
In the case of CCCC(C)C1(CC)C(=O)NC(=O)NC1=O (centres undefined), the logP is reported as 2.1.
Molecule Nc1ccc2cc3ccccc3nc2c1 has a logP of 2.77.
C[C@]12CCC(=O)C=C1CC[C@@H]1[C@@H]2C(=O)C[C@@]2(C)[C@H]1CC[C@]2(O)C(=O)CO gave a logP of 1.47.
CCN(C)C gave a logP of 0.7.
CCCSc1nnc(C(C)C)c(=O)n1N showed a logP of 2.12.
With ClC=C(Cl)Cl the logP was 2.42.
With C[N+]1([O-])C2CCC1CC(OC(=O)C(CO)c1ccccc1)C2 (centres undefined) the logP was 0.98.
Work on CNC(=O)Oc1cccc(OC)c1 yielded a logP of 1.3.
O=C(O)c1c(O)cccc1O gave a logP of 2.2.
In the case of CNC(=O)c1ccccc1, the logP is reported as 0.86.
Molecule COc1ccc(NC(C)=O)cc1 has a logP of 1.03.
Work on COc1cc(CCN)cc(OC)c1Br yielded a logP of 2.03.
With CNC(=O)Oc1ccc(C)c(C)c1 the logP was 2.09.
With O=C(O)c1cc(I)cc(I)c1O the logP was 4.56.
With O=C(O)COc1ccccc1Br the logP was 2.04.
Work on CC/C(=C/c1ccccc1)[N+](=O)[O-] yielded a logP of 2.86.
For CCc1ccc(OC(=O)NC)cc1, the logP was 2.23.
In the case of Oc1c(Br)cc(Br)c(O)c1Br, the logP is reported as 4.37.
With COc1ccc(OC)c(CC(C)N)c1 (centres undefined) the logP was 1.72.
Molecule c1ccc2nc3ccccc3cc2c1 has a logP of 3.4.
N[C@@H](Cc1ccccc1)C(=O)O showed a logP of -1.38.
With C#C[C@]1(O)CC[C@H]2[C@@H]3CCc4cc(O)ccc4[C@H]3CC[C@@]21C the logP was 3.67.
Molecule Nc1ccccc1Cl has a logP of 1.9.
Cc1cc(N)c(C)c(O)c1C(=O)O showed a logP of 3.38.
CN(C)CCC(c1ccc(Cl)cc1)c1ccccn1 (centres undefined) showed a logP of 3.38.
Work on C=CCOc1ccc(CC(=O)O)cc1Cl yielded a logP of 2.48.
For CCCCCCCCCC, the logP was 5.01.
Cc1c[nH]c2ccccc12 gave a logP of 2.6.
Molecule NS(=O)(=O)c1ccccc1Cl has a logP of 0.74.
CC1CCC(NC(=O)N(CCCl)N=O)CC1 (centres undefined) gave a logP of 3.3.
Molecule CNC(=O)Oc1cccc(C(C)=O)c1 has a logP of 0.9.
With COc1cccc(CC(C)N)c1OC (centres undefined) the logP was 1.49.
For NS(=O)(=O)c1ccccc1[N+](=O)[O-], the logP was 0.34.
Molecule COc1nnc(C(C)C)c(=O)n1N has a logP of -0.06.
With CC(=O)C(C#N)=NNc1ccc(Cl)c(Cl)c1 the logP was 4.56.
In the case of Brc1ccccc1Br, the logP is reported as 3.64.
In the case of FC(F)(Cl)C(F)(F)Cl, the logP is reported as 2.82.
In the case of Cn1nnc2ccccc21, the logP is reported as 1.13.
In the case of O=C(O)COc1cccc(C(F)(F)F)c1, the logP is reported as 2.36.
Work on O=[N+]([O-])c1cc2ccccc2[n+]([O-])c1 yielded a logP of 0.56.
Molecule NC(N)=O has a logP of -2.11.
Work on OCc1ccncc1 yielded a logP of 0.06.
NCCc1ccccc1 showed a logP of 1.41.
Molecule CC(C)Sc1nnc(C(C)C)c(=O)n1N has a logP of 2.06.
Cc1cccc(Nc2ccccc2C(=O)O)c1C gave a logP of 5.12.
With CNC(=O)Oc1cccc(I)c1 the logP was 2.52.
With NNC(=O)c1ccnc(F)c1 the logP was -0.11.
For CN(C)C(=O)Nc1ccccc1, the logP was 0.98.
CCNC(=O)c1ccc(S(N)(=O)=O)cc1 showed a logP of 0.03.
With Cc1cc(C)cc(O)c1 the logP was 2.35.
Molecule Cc1c[n+]([O-])c2ccccc2c1[N+](=O)[O-] has a logP of 1.06.
CNC(=O)Oc1ccc(C)cc1 showed a logP of 1.66.
Work on O=C(O)COc1ccccc1F yielded a logP of 1.39.
Molecule O=C(O)c1ccccn1 has a logP of 0.72.
For CC1=c2[nH]c3c(c2CCN1)C=CC(=O)C=3, the logP was 2.19.
O=c1cn[nH]c(=O)[nH]1 showed a logP of -0.59.
Work on CBr yielded a logP of 1.19.
For c1ccc2cc3ccccc3cc2c1, the logP was 4.45.
CC[C@H](C)N gave a logP of 0.74.
Work on O=c1ccn([C@H]2CC[C@@H](CO)O2)c(=O)[nH]1 yielded a logP of -1.
For CCCCCCC(C)=O, the logP was 2.37.
Molecule CNC(=O)Oc1cccc(C)c1 has a logP of 1.7.
Work on CNc1ccc(S(N)(=O)=O)cc1 yielded a logP of 0.08.
Cc1cn([C@H]2C=C[C@@H](CO)O2)c(=O)[nH]c1=O showed a logP of -0.72.
Work on CCC(Cc1ccccn1)C(N)=O (centres undefined) yielded a logP of -0.01.
c1ccc2sccc2c1 showed a logP of 3.12.
In the case of c1ccc2c(c1)Cc1ccccc1-2, the logP is reported as 4.18.
Work on Cc1ccc(O)c(C)c1 yielded a logP of 2.3.
CNc1ccc([N+](=O)[O-])cc1 gave a logP of 2.04.
In the case of CCOC(=O)Cc1ccccc1, the logP is reported as 2.28.
In the case of CC[C@@H]1C(=O)OC[C@@H]1Cc1cncn1C, the logP is reported as 0.12.
Work on CC1(C)S[C@@H]2[C@H](NC(=O)C(C(=O)O)c3ccccc3)C(=O)N2[C@H]1C(=O)O (some centres undefined) yielded a logP of 1.13.
Molecule O=C(O)c1cccc([N+](=O)[O-])c1 has a logP of 1.83.
Work on N#Cc1ccc(/C=C/NC=O)cc1 yielded a logP of 1.62.
Molecule O=C1CN=C(c2ccccc2)c2cc(Cl)ccc2N1CC1CC1 has a logP of 3.73.
In the case of c1ccc2occc2c1, the logP is reported as 2.67.
For NCCCC[C@H](N)C(=O)O, the logP was -3.05.
In the case of Nc1cc[nH]c(=O)n1, the logP is reported as -1.73.
O=C(O)CCCCCCCC(=O)O gave a logP of 1.57.
In the case of CCNC, the logP is reported as 0.15.
In the case of CN(C)C(=O)c1ccccc1, the logP is reported as 0.62.
Work on O=C(O)c1ncccc1O yielded a logP of -1.27.
CN(C)C(=O)Nc1cccc(Cl)c1 showed a logP of 2.
With O=[N+]([O-])c1cccc2ccccc12 the logP was 3.19.
Molecule CC(C)C(=O)C(C#N)=NNc1cc(C(F)(F)F)ccc1Cl has a logP of 5.31.
With COc1cccc(C=O)c1O the logP was 1.37.
NS(=O)(=O)c1cc2c(cc1Cl)N=CNS2(=O)=O showed a logP of -0.24.
In the case of N#Cc1ccc([N+](=O)[O-])cc1, the logP is reported as 1.19.
CN(Cc1ccccc1)c1ccccc1 showed a logP of 4.22.
Cc1cccc2c(C)cccc12 gave a logP of 4.38.
For COC(=O)c1ccccc1O, the logP was 2.55.
O=C1C=C(Cl)C(=O)c2ccccc21 gave a logP of 2.29.
For CC(C)NCC(O)COc1cccc2[nH]ccc12 (centres undefined), the logP was 1.75.
Work on Nc1ncnc2c1ncn2[C@H]1C=C[C@@H](CO)O1 yielded a logP of -0.5.
CC(=O)c1ccc(N)cc1 showed a logP of 0.83.
C1CCOC1 showed a logP of 0.46.
In the case of COc1ccc(C(C)=O)cc1, the logP is reported as 1.74.
For CCOC(=O)C(C#N)=NNc1cc(Cl)c(Cl)c(Cl)c1, the logP was 5.03.
With OCCN1CCN(CC/C=C2\c3ccccc3Sc3ccc(C(F)(F)F)cc32)CC1 the logP was 4.51.
Molecule NC(=O)c1ccccc1O has a logP of 1.28.
In the case of O=S(c1ccccc1)c1ccccc1, the logP is reported as 2.06.
For Nc1ncnc2c1ncn2[C@@H]1O[C@H](CO)[C@@H](O)[C@H]1O, the logP was -1.05.
Work on CCCCc1ccc(C(=O)O)nc1 yielded a logP of -1.29.
N#CCc1ccccc1 gave a logP of 1.56.
In the case of Cc1cc(Cl)ccc1NN=C(C#N)C(=O)C(C)C, the logP is reported as 4.31.
With CCC(=O)O the logP was 0.33.
Work on NC(=O)c1ccc(Br)cc1 yielded a logP of 1.76.
Work on O=c1[nH]c2ccccc2n1CCCN1CCC(n2c(=O)[nH]c3cc(Cl)ccc32)CC1 yielded a logP of 3.9.
With CCC(C)n1nnc2ccccc21 (centres undefined) the logP was 2.31.
Work on O=C(NC(CO)C(O)c1ccc([N+](=O)[O-])cc1)C(F)F (centres undefined) yielded a logP of 0.42.
In the case of CN(C)CCN1C(=O)c2ccccc2N(C)c2ccccc21, the logP is reported as 2.5.
C1CO1 gave a logP of -0.3.
For C=CBr, the logP was 1.57.
COc1ccccc1NC(C)=O gave a logP of 0.67.
For c1ccc(-c2ncc[nH]2)cc1, the logP was 1.88.
CNC(=O)CNC(C)=O gave a logP of -1.56.
For COC(=O)C(C#N)=NNc1cc(Cl)cc(Cl)c1, the logP was 4.5.
In the case of CCOc1cccc(OC(=O)NC)c1, the logP is reported as 1.75.
With Oc1cccc(C(F)(F)F)c1 the logP was 2.95.
In the case of CCCCCCCC(C)=O, the logP is reported as 3.14.
With Oc1ccccc1O the logP was 0.88.
CI gave a logP of 1.51.
In the case of O=C(/C=C/c1ccccc1)c1ccccc1, the logP is reported as 3.08.
CCC(C)C1(CC)C(=O)NC(=O)NC1=O (centres undefined) gave a logP of 1.65.
In the case of O=c1ccn([C@H]2C[C@H](F)[C@@H](CO)O2)c(=O)[nH]1, the logP is reported as -0.49.
For O=C(O)COc1ccccc1, the logP was 1.34.
For O/N=C/c1ccccc1, the logP was 1.75.
In the case of COc1ccc(C(=O)O)cc1, the logP is reported as 1.96.
Molecule COc1ccc(O)cc1 has a logP of 1.58.
With Cc1cnc(NS(=O)(=O)c2ccc(N)cc2)nc1 the logP was 0.34.
COc1ccc2c3c1O[C@H]1[C@@H](O)C=C[C@H]4[C@@H](C2)N(C)CC[C@@]341 gave a logP of 1.19.
With c1ccc2nccnc2c1 the logP was 1.32.
CN(C)C showed a logP of 0.16.
Work on COc1ccccc1C(=O)O yielded a logP of 1.59.
With O=C(O)c1cccc(I)c1 the logP was 3.13.
Work on O=C(O)c1cc(Br)ccc1O yielded a logP of 3.23.
In the case of O=NN(CCCl)C(=O)NC1CCCCC1, the logP is reported as 2.83.
For Nc1cccc2ncccc12, the logP was 1.16.
For CNC(=O)Oc1ccc(I)cc1, the logP was 2.46.
CC(=O)c1ccncc1 showed a logP of 0.48.
With Cc1cc2ccccc2n1C the logP was 2.82.

Reference: the SangsterLogP compilation
